Test results from US10512630B2, “Compositions and methods for treating cancer” (The Regents Of The University Of California, priority 2015, dated 2019).

What was measured:
[1] = test system: MDA-MB-231 triple-negative breast cancer cells; assay: Proliferation of MDA-MB-231 triple-negative breast cancer cells in vitro; type: cell-based, human; conditions: for Cell proliferation (% control) as a function of parthenolide analog dose (10 uM). / Cell proliferation (% control) as a function of parthenolide analog dose (50 uM).: MDA-MB-231 cells, data corresponds to FIG. 5; for Antitumor effects compared with dimethylamino-parthenolide (DMAPT): MDA-MB-231, doses 0-50 micromolar, most notable at 10 micromolar, FIG. 2
Procedure: (§1) FIG. 2: Parthenolides inhibit proliferation of MDAMB231 triple negative breast cancer cells. Parthenolide analogues JD211-JD216 were tested for antitumor activity using triple-negative breast cancer cells (MDA-MB-231) in vitro. Doses ranged from 0-50 micromolar and tumor cell proliferation was assessed using established methods. […] This was most notable at lower compound dose at 10 micromolar. These findings indicate that novel compounds such as JD213, JD214, JD215 and JD216 are more promising candidates for anticancer therapy then DMAPT because these cancers are more sensitive to compounds other than DMAPT.
as §1, with “Parthenolide” for “FIG. 2: Parthenolides inhibit proliferation of MDAMB231 triple negative breast cancer cells. Parthenolide”

[2] = test system: human umbicical vein endothelial cells (HUVEC); assay: Proliferation of human umbilical vein endothelial cells (HUVEC) in vitro; type: cell-based; conditions: dosed at 100-nM or at doses up to 10-uM (not shown); FIG. 6

Row | SMILES | Cell proliferation (% control) as a function of parthenolide analog dose (10 uM). [1] [% control] | Cell proliferation (% control) as a function of parthenolide analog dose (50 uM). [1] [% control] | Antitumor effects compared with dimethylamino-parthenolide (DMAPT) [1] | Effect on proliferation of HUVEC [2] | Suppression of MDA-MB-231 cell proliferation ([1]; 100-nM dose (0.1-uM) in vitro, compared to control (P<0.001), FIG. 6)
1 | C/C1=C\CC[C@@]2(C)O[C@H]2[C@H]2OC(=O)[C@@H](CNC(C)(C)C(=O)O)[C@@H]2CC1 [JD215, 2-((((3R,3aS,10bS,E)-6,9a-Dimethyl-2-oxo-2,3,3a,4,5,8,9,9a,10a,10b-decahydrooxire-no[2′,3′:9,10]cyclodeca[1,2-b]furan-3-yl)methyl)amino)-2-methylpropanoic acid] | 59.5 | 0 | greater than that observed with dimethylamino-parthenolide (DMAPT) | – | –
2 | C/C1=C\CC[C@@]2(C)O[C@H]2[C@H]2OC(=O)[C@@H](CN(C)CC(=O)O)[C@@H]2CC1 [JD214, N-(((3R,3aS,10bS,E)-6,9a-Dimethyl-2-oxo-2,3,3a,4,5,8,9,9a,10a,10b-decahydrooxire-no[2′,3′:9,10]cyclodeca[1,2-b]furan-3-yl)methyl)-N-methylglycine] | 40.0 | 16.6 | greater than that observed with dimethylamino-parthenolide (DMAPT) | – | –
3 | C/C1=C\CC[C@@]2(C)O[C@H]2[C@H]2OC(=O)[C@@H](CNC(C)(C)C(=O)OCc3ccccc3)[C@@H]2CC1 [JD212, Benzyl 2-((((3R,3aS,10bS,E)-6,9a-dimethyl-2-oxo-2,3,3a,4,5,8,9,9a,10a,10b-decahydrooxir-eno[2′,3′:9,10]cyclodeca[1,2-b]furan-3-yl)methyl)amino)-2-methylpropanoate] | 103.4 | 100.8 | – | – | –
4 | C/C1=C\CC[C@@]2(C)O[C@H]2[C@H]2OC(=O)[C@@H](CNCC(=O)O)[C@@H]2CC1 [JD211, (((3R,3aS,1bS,E)-6,9a-dimethyl-2-oxo-2,3,3a,4,5,8,9,9a,10a,10b-decahydrooxire-no[2′,3′:9,10]cyclodeca[1,2-b]furan-3-yl)methyl)glycine] | 106.0 | 105.8 | – | – | –
5 | C/C1=C\CC[C@@]2(C)O[C@H]2[C@H]2OC(=O)[C@@H](CNCC(=O)OCc3ccccc3)[C@@H]2CC1 [JD216, Benzyl (((3R,3aS,10bS,E)-6,9a-dimethyl-2-oxo-2,3,3a,4,5,8,9,9a,10a,10b-decahydrooxire-no[2′,3′:9,10]cyclodeca[1,2-b]furan-3-yl)methyl)glycinate] | 0 | 0 | greater than that observed with dimethylamino-parthenolide (DMAPT) | does not significantly alter | effectively suppress
6 | C/C1=C\CC[C@@]2(C)O[C@H]2[C@H]2OC(=O)[C@@H](CN(C)CC(=O)OCc3ccccc3)[C@@H]2CC1 [JD213, Benzyl N-(((3R,3aS,10bS,E)-6,9a-dimethyl-2-oxo-2,3,3a,4,5,8,9,9a,10a,10b-decahydrooxire-no[2′,3′:9,10]cyclodeca[1,2-b]furan-3-yl)methyl)-N-methylglycinate] | 26.7 | 0.4 | greater than that observed with dimethylamino-parthenolide (DMAPT) | – | –
